Laboratory results published in patent publication US9340590B2 (priority 2011, dated 2016).
Positions of bridges follow the written chain, without caps; N, C: chain ends. Residues, ends and D or L forms follow the SMILES beside them.

Assays:
Assay in all cases: cell-based
hNav1.7 = hNav1.7 (Homo sapiens, UniProt Q15858); type: cell-based; settings: IonWorks Quattro, use-dependent block, hNav1.7; read-out: IWQ Use Nav1.7
hNav1.5 = hNav1.5 (Homo sapiens, UniProt Q14524); settings: IonWorks Quattro, use-dependent block, hNav1.5; read-out: IWQ Use Nav1.5
hNav1.3 = hNav1.3 (Homo sapiens, UniProt Q9NY46); settings: IonWorks Quattro, use-dependent block, hNav1.3; read-out: IWQ Use Nav1.3
Sequence of hNav1.3 (Q9NY46 whole entry, looked up): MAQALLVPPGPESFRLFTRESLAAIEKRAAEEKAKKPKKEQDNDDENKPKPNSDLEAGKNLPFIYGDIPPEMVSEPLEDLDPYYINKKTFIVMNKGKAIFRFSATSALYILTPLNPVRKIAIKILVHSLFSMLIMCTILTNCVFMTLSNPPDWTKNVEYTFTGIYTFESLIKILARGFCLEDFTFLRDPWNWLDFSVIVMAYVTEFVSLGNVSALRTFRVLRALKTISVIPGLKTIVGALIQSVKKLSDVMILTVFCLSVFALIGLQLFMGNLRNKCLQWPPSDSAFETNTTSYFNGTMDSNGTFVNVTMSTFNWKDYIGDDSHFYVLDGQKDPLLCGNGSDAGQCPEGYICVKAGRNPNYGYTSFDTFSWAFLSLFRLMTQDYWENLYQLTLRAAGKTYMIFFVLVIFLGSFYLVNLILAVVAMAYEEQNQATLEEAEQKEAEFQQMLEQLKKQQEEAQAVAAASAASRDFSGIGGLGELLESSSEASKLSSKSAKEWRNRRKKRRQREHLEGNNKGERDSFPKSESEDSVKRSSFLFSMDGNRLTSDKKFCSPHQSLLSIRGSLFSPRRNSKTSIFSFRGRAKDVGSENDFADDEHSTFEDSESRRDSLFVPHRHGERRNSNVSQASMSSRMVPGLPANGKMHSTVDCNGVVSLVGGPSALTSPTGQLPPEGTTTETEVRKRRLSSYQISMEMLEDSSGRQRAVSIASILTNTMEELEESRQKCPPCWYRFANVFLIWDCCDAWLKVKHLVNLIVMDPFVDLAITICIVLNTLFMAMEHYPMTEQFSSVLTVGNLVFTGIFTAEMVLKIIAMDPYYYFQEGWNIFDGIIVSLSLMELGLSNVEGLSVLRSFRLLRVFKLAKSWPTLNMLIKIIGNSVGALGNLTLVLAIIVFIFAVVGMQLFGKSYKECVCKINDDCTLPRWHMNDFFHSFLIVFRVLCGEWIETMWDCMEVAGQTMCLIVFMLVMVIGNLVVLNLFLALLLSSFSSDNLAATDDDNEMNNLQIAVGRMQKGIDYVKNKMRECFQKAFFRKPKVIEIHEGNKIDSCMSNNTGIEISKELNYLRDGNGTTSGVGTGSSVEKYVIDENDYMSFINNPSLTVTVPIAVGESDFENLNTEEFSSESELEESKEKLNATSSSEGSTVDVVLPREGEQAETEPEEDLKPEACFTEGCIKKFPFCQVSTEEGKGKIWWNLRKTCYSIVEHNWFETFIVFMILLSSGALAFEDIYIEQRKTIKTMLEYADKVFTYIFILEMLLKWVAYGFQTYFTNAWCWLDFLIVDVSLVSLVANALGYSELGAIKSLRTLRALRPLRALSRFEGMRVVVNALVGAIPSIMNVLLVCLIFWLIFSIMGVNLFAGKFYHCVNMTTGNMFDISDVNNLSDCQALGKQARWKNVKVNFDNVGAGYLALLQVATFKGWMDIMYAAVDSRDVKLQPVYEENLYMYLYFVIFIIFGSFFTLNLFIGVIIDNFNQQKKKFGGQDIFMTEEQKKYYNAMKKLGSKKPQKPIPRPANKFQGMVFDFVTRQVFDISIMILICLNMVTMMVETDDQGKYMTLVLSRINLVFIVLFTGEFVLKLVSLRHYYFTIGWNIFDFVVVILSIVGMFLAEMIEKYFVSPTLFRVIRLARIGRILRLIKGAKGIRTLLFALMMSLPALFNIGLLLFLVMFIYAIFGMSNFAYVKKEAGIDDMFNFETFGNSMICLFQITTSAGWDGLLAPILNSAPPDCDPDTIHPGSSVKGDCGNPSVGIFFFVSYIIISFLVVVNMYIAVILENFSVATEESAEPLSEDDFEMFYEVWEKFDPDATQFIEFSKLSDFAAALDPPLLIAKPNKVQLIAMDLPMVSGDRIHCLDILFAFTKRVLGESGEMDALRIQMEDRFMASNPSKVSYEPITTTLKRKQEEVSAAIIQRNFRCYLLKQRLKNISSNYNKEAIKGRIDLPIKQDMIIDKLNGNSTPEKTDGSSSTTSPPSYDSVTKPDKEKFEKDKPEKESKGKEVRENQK

Sequence of hNav1.7 (Q15858 whole entry, looked up): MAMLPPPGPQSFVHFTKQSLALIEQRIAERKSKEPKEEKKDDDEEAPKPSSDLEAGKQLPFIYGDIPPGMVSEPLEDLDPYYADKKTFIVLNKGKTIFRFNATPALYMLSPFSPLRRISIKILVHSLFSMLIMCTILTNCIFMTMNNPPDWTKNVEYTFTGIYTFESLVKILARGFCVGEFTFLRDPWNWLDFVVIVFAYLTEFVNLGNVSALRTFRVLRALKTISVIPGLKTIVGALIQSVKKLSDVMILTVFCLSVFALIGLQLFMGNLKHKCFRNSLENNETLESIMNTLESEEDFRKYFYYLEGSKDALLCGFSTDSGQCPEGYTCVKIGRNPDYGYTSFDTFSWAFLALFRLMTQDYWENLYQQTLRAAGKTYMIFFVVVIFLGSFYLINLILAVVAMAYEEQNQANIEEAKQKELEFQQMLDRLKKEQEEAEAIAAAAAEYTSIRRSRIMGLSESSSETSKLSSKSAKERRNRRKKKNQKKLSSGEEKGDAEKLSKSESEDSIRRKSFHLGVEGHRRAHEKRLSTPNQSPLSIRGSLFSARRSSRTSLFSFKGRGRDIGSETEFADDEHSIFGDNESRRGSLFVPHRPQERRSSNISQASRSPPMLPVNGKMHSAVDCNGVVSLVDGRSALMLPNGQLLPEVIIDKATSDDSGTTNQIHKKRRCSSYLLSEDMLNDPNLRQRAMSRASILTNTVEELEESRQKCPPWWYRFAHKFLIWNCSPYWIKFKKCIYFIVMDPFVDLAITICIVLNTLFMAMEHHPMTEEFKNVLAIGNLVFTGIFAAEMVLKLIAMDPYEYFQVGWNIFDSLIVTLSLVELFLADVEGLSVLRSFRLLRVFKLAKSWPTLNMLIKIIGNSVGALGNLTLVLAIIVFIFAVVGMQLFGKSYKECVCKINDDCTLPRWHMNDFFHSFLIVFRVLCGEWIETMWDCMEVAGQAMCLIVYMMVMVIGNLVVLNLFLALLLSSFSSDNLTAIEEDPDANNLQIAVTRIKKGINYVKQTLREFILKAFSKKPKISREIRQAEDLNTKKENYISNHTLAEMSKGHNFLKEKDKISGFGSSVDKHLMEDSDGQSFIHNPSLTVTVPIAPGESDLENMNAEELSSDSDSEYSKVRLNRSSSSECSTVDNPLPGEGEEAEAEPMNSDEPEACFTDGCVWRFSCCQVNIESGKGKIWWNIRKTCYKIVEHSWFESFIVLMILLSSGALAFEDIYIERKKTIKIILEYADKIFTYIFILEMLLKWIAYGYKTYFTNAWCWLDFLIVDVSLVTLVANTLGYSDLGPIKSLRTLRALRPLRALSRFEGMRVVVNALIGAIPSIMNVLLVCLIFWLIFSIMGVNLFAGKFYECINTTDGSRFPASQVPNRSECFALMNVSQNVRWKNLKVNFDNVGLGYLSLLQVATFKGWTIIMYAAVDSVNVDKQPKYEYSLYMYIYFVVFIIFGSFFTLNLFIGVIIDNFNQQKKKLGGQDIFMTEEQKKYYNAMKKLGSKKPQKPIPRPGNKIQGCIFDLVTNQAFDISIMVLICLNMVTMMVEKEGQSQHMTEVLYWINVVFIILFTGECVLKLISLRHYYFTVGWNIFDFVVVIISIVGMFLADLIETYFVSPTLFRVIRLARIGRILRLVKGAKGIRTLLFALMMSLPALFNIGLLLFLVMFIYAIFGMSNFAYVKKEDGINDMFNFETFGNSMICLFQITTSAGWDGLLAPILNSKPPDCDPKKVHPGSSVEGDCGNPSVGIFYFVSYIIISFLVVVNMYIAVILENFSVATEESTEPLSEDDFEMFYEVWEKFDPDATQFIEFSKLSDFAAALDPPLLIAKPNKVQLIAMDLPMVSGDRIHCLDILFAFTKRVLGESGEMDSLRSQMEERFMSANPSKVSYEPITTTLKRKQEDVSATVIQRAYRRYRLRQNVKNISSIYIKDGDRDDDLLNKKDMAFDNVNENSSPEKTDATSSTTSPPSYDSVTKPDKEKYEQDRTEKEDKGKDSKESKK

Row | SMILES | IC50 (hNav1.7) [µM] | IC50 (hNav1.5) [µM] | IC50 (hNav1.3) [µM]
1 | CC[C@H](C)[C@@H]1NC(=O)[C@@H]2CSSC[C@@H]3NC(=O)[C@H](C(C)C)NC(=O)[C@H](CC(C)C)NC(=O)[C@H](CC(N)=O)NC(=O)[C@@H]4CCCN4C(=O)[C@H](CCCNC(=N)N)NC(=O)[C@H](CSSC[C@H](NC(=O)[C@@H](N)CC(=O)O)C(=O)N[C@@H](CC(C)C)C(=O)NCC(=O)N[C@@H](C)C(=O)N[C@@H](CCSC)C(=O)N[C@@H](CCCNC(=N)N)C(=O)N[C@@H](CCCCN)C(=O)N2)NC(=O)[C@H](CSSC[C@@H](C(=O)N[C@@H](CCCCN)C(=O)N[C@@H](Cc2ccc(O)cc2)C(=O)N[C@H](C(=O)N[C@@H](C)C(N)=O)C(C)C)NC(=O)[C@H](Cc2c[nH]c4ccccc24)NC(=O)[C@H](CCCCN)NC(=O)[C@H](Cc2c[nH]cn2)NC(=O)[C@H]([C@@H](C)O)NC(=O)[C@H](CCCNC(=N)N)NC(=O)[C@H](CO)NC3=O)NC(=O)[C@H](CCCCN)NC(=O)[C@H](CC(=O)O)NC(=O)[C@H](CC(N)=O)NC(=O)[C@H](CC(=O)O)NC(=O)[C@@H]2CCCN2C1=O [compound 431] (H-DCLGAMRKCIPDNDKCCRPNLVCSRTHKWCKYVA-NH2; disulfide 2-17, 9-23, 16-30) | > 5 | > 5 | > 5
2 | CC[C@H](C)[C@@H]1NC(=O)[C@@H]2CSSC[C@@H]3NC(=O)[C@H](C(C)C)NC(=O)[C@H](CC(C)C)NC(=O)[C@H](CC(N)=O)NC(=O)[C@@H]4CCCN4C(=O)[C@H](CCCNC(=N)N)NC(=O)[C@H](CSSC[C@H](NC(=O)[C@@H](N)CC(=O)O)C(=O)N[C@@H](CC(C)C)C(=O)NCC(=O)N[C@@H](C)C(=O)N[C@@H](CCSC)C(=O)N[C@@H](CCCNC(=N)N)C(=O)N[C@@H](CCCCN)C(=O)N2)NC(=O)[C@H](CSSC[C@@H](C(=O)N[C@@H](CCCCN)C(=O)N[C@@H](C)C(=O)N[C@H](C(=O)N[C@@H](Cc2ccccc2)C(N)=O)C(C)C)NC(=O)[C@H](Cc2c[nH]c4ccccc24)NC(=O)[C@H](CCCCN)NC(=O)[C@H](Cc2c[nH]cn2)NC(=O)[C@H]([C@@H](C)O)NC(=O)[C@H](CCCNC(=N)N)NC(=O)[C@H](CO)NC3=O)NC(=O)[C@H](CCCCN)NC(=O)[C@H](CC(=O)O)NC(=O)[C@H](CC(N)=O)NC(=O)[C@H](CC(=O)O)NC(=O)[C@@H]2CCCN2C1=O [compound 432] (H-DCLGAMRKCIPDNDKCCRPNLVCSRTHKWCKAVF-NH2; disulfide 2-17, 9-23, 16-30) | > 5 | > 5 | > 5
3 | CC[C@H](C)[C@@H]1NC(=O)[C@@H]2CSSC[C@@H]3NC(=O)[C@H](C(C)C)NC(=O)[C@H](CC(C)C)NC(=O)[C@H](CC(N)=O)NC(=O)[C@@H]4CCCN4C(=O)[C@H](CCCNC(=N)N)NC(=O)[C@H](CSSC[C@H](NC(=O)[C@@H](N)CC(=O)O)C(=O)N[C@@H](CC(C)C)C(=O)NCC(=O)N[C@@H](C)C(=O)N[C@@H](CCSC)C(=O)N[C@@H](CCCNC(=N)N)C(=O)N[C@@H](CCCCN)C(=O)N2)NC(=O)[C@H](CSSC[C@@H](C(=O)N[C@@H](C)C(=O)N[C@@H](Cc2ccc(O)cc2)C(=O)N[C@H](C(=O)N[C@@H](Cc2ccccc2)C(N)=O)C(C)C)NC(=O)[C@H](Cc2c[nH]c4ccccc24)NC(=O)[C@H](CCCCN)NC(=O)[C@H](Cc2c[nH]cn2)NC(=O)[C@H]([C@@H](C)O)NC(=O)[C@H](CCCNC(=N)N)NC(=O)[C@H](CO)NC3=O)NC(=O)[C@H](CCCCN)NC(=O)[C@H](CC(=O)O)NC(=O)[C@H](CC(N)=O)NC(=O)[C@H](CC(=O)O)NC(=O)[C@@H]2CCCN2C1=O [compound 433] (H-DCLGAMRKCIPDNDKCCRPNLVCSRTHKWCAYVF-NH2; disulfide 2-17, 9-23, 16-30) | > 5 | > 5 | > 5
4 | CC[C@H](C)[C@@H]1NC(=O)[C@@H]2CSSC[C@@H]3NC(=O)[C@H](C(C)C)NC(=O)[C@H](CC(C)C)NC(=O)[C@H](CC(N)=O)NC(=O)[C@@H]4CCCN4C(=O)[C@H](CCCNC(=N)N)NC(=O)[C@H](CSSC[C@H](NC(=O)[C@@H](N)CC(=O)O)C(=O)N[C@@H](CC(C)C)C(=O)NCC(=O)N[C@@H](C)C(=O)N[C@@H](CCSC)C(=O)N[C@@H](CCCNC(=N)N)C(=O)N[C@@H](CCCCN)C(=O)N2)NC(=O)[C@H](CSSC[C@@H](C(=O)N[C@@H](CCCCN)C(=O)N[C@@H](Cc2ccc(O)cc2)C(=O)N[C@H](C(=O)N[C@@H](Cc2ccccc2)C(N)=O)C(C)C)NC(=O)[C@H](C)NC(=O)[C@H](CCCCN)NC(=O)[C@H](Cc2c[nH]cn2)NC(=O)[C@H]([C@@H](C)O)NC(=O)[C@H](CCCNC(=N)N)NC(=O)[C@H](CO)NC3=O)NC(=O)[C@H](CCCCN)NC(=O)[C@H](CC(=O)O)NC(=O)[C@H](CC(N)=O)NC(=O)[C@H](CC(=O)O)NC(=O)[C@@H]2CCCN2C1=O [compound 434] (H-DCLGAMRKCIPDNDKCCRPNLVCSRTHKACKYVF-NH2; disulfide 2-17, 9-23, 16-30) | > 5 | > 5 | > 5
5 | CC[C@H](C)[C@@H]1NC(=O)[C@@H]2CSSC[C@@H]3NC(=O)[C@H](C(C)C)NC(=O)[C@H](CC(C)C)NC(=O)[C@H](CC(N)=O)NC(=O)[C@@H]4CCCN4C(=O)[C@H](CCCNC(=N)N)NC(=O)[C@H](CSSC[C@H](NC(=O)[C@@H](N)CC(=O)O)C(=O)N[C@@H](CC(C)C)C(=O)NCC(=O)N[C@@H](C)C(=O)N[C@@H](CCSC)C(=O)N[C@@H](CCCNC(=N)N)C(=O)N[C@@H](CCCCN)C(=O)N2)NC(=O)[C@H](CSSC[C@@H](C(=O)N[C@@H](CCCCN)C(=O)N[C@@H](Cc2ccc(O)cc2)C(=O)N[C@H](C(=O)N[C@@H](Cc2ccccc2)C(N)=O)C(C)C)NC(=O)[C@H](Cc2c[nH]c4ccccc24)NC(=O)[C@H](CCC(=O)O)NC(=O)[C@H](Cc2c[nH]cn2)NC(=O)[C@H]([C@@H](C)O)NC(=O)[C@H](CCCNC(=N)N)NC(=O)[C@H](CO)NC3=O)NC(=O)[C@H](CCCCN)NC(=O)[C@H](CC(=O)O)NC(=O)[C@H](CC(N)=O)NC(=O)[C@H](CC(=O)O)NC(=O)[C@@H]2CCCN2C1=O [compound 435] | > 5 | 3.66 | > 5
6 | CC[C@H](C)[C@@H]1NC(=O)[C@@H]2CSSC[C@@H]3NC(=O)[C@H](C(C)C)NC(=O)[C@H](CC(C)C)NC(=O)[C@H](CC(N)=O)NC(=O)[C@@H]4CCCN4C(=O)[C@H](CCCNC(=N)N)NC(=O)[C@H](CSSC[C@H](NC(=O)[C@@H](N)CC(=O)O)C(=O)N[C@@H](CC(C)C)C(=O)NCC(=O)N[C@@H](C)C(=O)N[C@@H](CCSC)C(=O)N[C@@H](CCC(=O)O)C(=O)N[C@@H](CCCCN)C(=O)N2)NC(=O)[C@H](CSSC[C@@H](C(=O)N[C@@H](CCCCN)C(=O)N[C@@H](Cc2ccc(O)cc2)C(=O)N[C@H](C(=O)N[C@@H](Cc2ccccc2)C(N)=O)C(C)C)NC(=O)[C@H](Cc2c[nH]c4ccccc24)NC(=O)[C@H](CCCCN)NC(=O)[C@H](Cc2c[nH]cn2)NC(=O)[C@H]([C@@H](C)O)NC(=O)[C@H](CCCNC(=N)N)NC(=O)[C@H](CO)NC3=O)NC(=O)[C@H](CCCCN)NC(=O)[C@H](CC(=O)O)NC(=O)[C@H](CC(N)=O)NC(=O)[C@H](CC(=O)O)NC(=O)[C@@H]2CCCN2C1=O [compound 436] (H-DCLGAMEKCIPDNDKCCRPNLVCSRTHKWCKYVF-NH2; disulfide 2-17, 9-23, 16-30) | > 5 | > 5 | > 5
7 | CC[C@H](C)[C@@H]1NC(=O)[C@@H]2CSSC[C@@H]3NC(=O)[C@H](C(C)C)NC(=O)[C@H](CC(C)C)NC(=O)[C@H](CC(N)=O)NC(=O)[C@@H]4CCCN4C(=O)[C@H](CCCNC(=N)N)NC(=O)[C@H](CSSC[C@H](NC(=O)[C@@H](N)CC(=O)O)C(=O)N[C@@H](CC(C)C)C(=O)NCC(=O)N[C@@H](C)C(=O)N[C@@H](CCSC)C(=O)N[C@@H](CCCNC(=N)N)C(=O)N[C@@H](CCCCN)C(=O)N2)NC(=O)[C@H](CSSC[C@@H](C(=O)N[C@@H](CCCCN)C(=O)N[C@@H](Cc2ccc(O)cc2)C(=O)N[C@H](C(=O)N[C@@H](Cc2ccccc2)C(N)=O)C(C)C)NC(=O)[C@H](CCC(=O)O)NC(=O)[C@H](CCCCN)NC(=O)[C@H](Cc2c[nH]cn2)NC(=O)[C@H]([C@@H](C)O)NC(=O)[C@H](CCCNC(=N)N)NC(=O)[C@H](CO)NC3=O)NC(=O)[C@H](CCCCN)NC(=O)[C@H](CC(=O)O)NC(=O)[C@H](CC(N)=O)NC(=O)[C@H](CC(=O)O)NC(=O)[C@@H]2CCCN2C1=O [compound 437] (H-DCLGAMRKCIPDNDKCCRPNLVCSRTHKECKYVF-NH2; disulfide 2-17, 9-23, 16-30) | 11.9 | 9.26 | 6.09
8 | CC[C@H](C)[C@@H]1NC(=O)[C@@H]2CSSC[C@@H]3NC(=O)[C@H](C(C)C)NC(=O)[C@H](CC(C)C)NC(=O)[C@H](CC(N)=O)NC(=O)[C@@H]4CCCN4C(=O)[C@H](CCCNC(=N)N)NC(=O)[C@H](CSSC[C@H](NC(=O)[C@@H](N)CC(=O)O)C(=O)N[C@@H](CC(C)C)C(=O)NCC(=O)N[C@@H](C)C(=O)N[C@@H](CCSC)C(=O)N[C@@H](CCCNC(=N)N)C(=O)N[C@@H](CCCCN)C(=O)N2)NC(=O)[C@H](CSSC[C@@H](C(=O)N[C@@H](CCCCN)C(=O)N[C@@H](Cc2ccc(O)cc2)C(=O)N[C@H](C(=O)N[C@@H](Cc2ccccc2)C(N)=O)C(C)C)NC(=O)[C@H](Cc2c[nH]c4ccccc24)NC(=O)[C@H](CCCCN)NC(=O)[C@H](Cc2c[nH]cn2)NC(=O)[C@H]([C@@H](C)O)NC(=O)[C@H](CCC(=O)O)NC(=O)[C@H](CO)NC3=O)NC(=O)[C@H](CCCCN)NC(=O)[C@H](CC(=O)O)NC(=O)[C@H](CC(N)=O)NC(=O)[C@H](CC(=O)O)NC(=O)[C@@H]2CCCN2C1=O [compound 438] | 5.5 | 18.2 | 5.95
